Measured values: US8618137B2 (priority 2008, dated 2013)
Where two headings read alike, the source gives them in different places. Marks after values point to notes of the source that are not given here.

Key:
Format in all cases: in vivo
[1] = tested on: Phytophthora infestans (the causal agent of tomato late blight); conditions: sprayed the day before inoculation, 100 = 100% disease control, 0 = no control
[2] = tested on: Phytophthora infestans (the causal agent of tomato late blight); conditions: sprayed 17 h after inoculation, 100 = 100% disease control, 0 = no control
[3] = tested on: Plasmopara viticola (the causal agent of grape downy mildew); assay: Test A: grape downy mildew, grape seedlings inoculated then sprayed with test suspension, visual disease rating; conditions: 100 = 100% disease control, 0 = no control relative to controls
Text: General protocol for preparing test suspensions for Tests A-B2: The test compounds were first dissolved in acetone in an amount equal to 3% of the final volume and then suspended at the desired concentration (in ppm) in acetone and purified water (50/50 mix by volume) containing 250 ppm of the surfactant Trem® 014 (polyhydric alcohol esters). The resulting test suspensions were then used in Tests A-B2. Spraying a 200 ppm test suspension to the point of run-off on the test plants was the equivalent of a rate of 800 g/ha.
Grape seedlings were inoculated with a spore suspension of Plasmopara viticola (the causal agent of grape downy mildew) and incubated in a saturated atmosphere at 20° C. for 24 h. After a short drying period, the grape seedlings were sprayed with the test suspension to the point of run-off, then moved to a growth chamber at 20° C. for 5 days, and then back into a saturated atmosphere at 20° C. for 24 h. Upon removal, visual disease ratings were made.
Results for Tests A-B2 are given in Table A. In the Table, a rating of 100 indicates 100% disease control and a rating of 0 indicates no disease control (relative to the controls). All results are for 10 ppm except where followed by an “*” which indicates 40 ppm and “**” which indicates 200 ppm.

[4] = test suspension 10 ppm, listed as 2

| Molecule | Test B1 rating (disease control) ([1]; test suspension 10 ppm) | Test B2 rating (disease control) ([2]; test suspension 10 ppm) | Test A rating (disease control) ([3]; test suspension 10 ppm) | Test B1 rating (disease control) ([1]; test suspension 40 ppm (*)) | Test B2 rating (disease control) ([2]; test suspension 40 ppm (*)) | Test A rating (disease control) ([3]; test suspension 40 ppm (*)) | also measured |
| --- | --- | --- | --- | --- | --- | --- | --- |
| CC(=NOCC(=O)N1CCC(c2nc(C3=NOC(c4ccccc4C#N)C3)cs2)CC1)C(F)(F)F (stereo not drawn) [compound 42] | 100% | 99% | 100% |  |  |  |  |
| Cn1c(=O)n(C2CC(c3csc(C4CCN(C(=O)CON=CC(F)(F)F)CC4)n3)=NO2)c2ccccc21 (stereo not drawn) [compound 48] | 100% | 99% | 100% |  |  |  |  |
| CC(C)=NOCC(=O)N1CCC(c2nc(C3=NOC(N4C(=O)c5ccccc5C4=O)C3)cs2)CC1 (stereo not drawn) [compound 45] | 95% | 99% | 96% |  |  |  |  |
| O=C(CON=CC(Cl)(Cl)Cl)N1CCC(c2nc(C3=NOC(c4c(F)cccc4F)C3)cs2)CC1 (racemic) [compound 17] | 97% | 47% | 66% |  |  |  |  |
| 2,2,2-trifluoroacetaldehyde, O-[2-[4-[4-[5-(2,6-difluorophenyl)-4,5-dihydro-3-isoxazolyl]-2-thiazolyl]-1-piperidinyl]-2-oxoethyl]oxime [Compound 3] | 100% | 99% | 100% |  |  |  |  |
| O=C(CON=CC(F)(F)F)N1CCC(c2nc(C3=NOC(c4c(F)cccc4F)C3)cs2)CC1 (stereo not drawn) [Compound 3, 2,2,2-trifluoroacetaldehyde, O-[2-[4-[4-[5-(2,6-difluorophenyl)-4,5-dihydro-3-isoxazolyl]-2-thiazolyl]-1-piperidinyl]-2-oxoethyl]oxime] | 100% | 99% | 100% |  |  |  |  |
| CN(CC(=O)N1CCC(c2nc(C3=NOC(c4c(F)cccc4F)C3)cs2)CC1)N=CC(F)(F)F (stereo not drawn) [Compound 35] |  |  |  | 100* % | 99* % | 100* % |  |
| CC(=NOCC(=O)N1CCC(c2nc(C3=NOC(n4c(=O)oc5ccccc54)C3)cs2)CC1)C(F)(F)F (stereo not drawn) [compound 43] | 100% | 99% | 100% |  |  |  |  |
| O=C(CON=C1CCCC1)N1CCC(c2nc(C3=NOC(c4c(F)cccc4F)C3)cs2)CC1 (stereo not drawn) [Compound 5] | 95% | 98% | 95% |  |  |  | Test B1 rating (disease control) [1, 4]: 100%; Test B2 rating (disease control) [2, 4]: 100%; Test A rating (disease control) [3, 4]: 100% |
| CC(C)(C)OC(=O)NCCC(=O)N1CCC(c2nc(C3=NOC(c4c(F)cccc4F)C3)cs2)CC1 (racemic) [compound 33] |  |  |  |  |  |  | Test B1 rating (disease control) ([1]; test suspension 200 ppm (**)): 68** %; Test B2 rating (disease control) ([2]; test suspension 200 ppm (**)): 0** %; Test A rating (disease control) ([3]; test suspension 200 ppm (**)): 0** % |
| CCCC=NOCC(=O)N1CCC(c2nc(C3=NOC(c4c(F)cccc4F)C3)cs2)CC1 (racemic) [compound 10] | 95% | 88% | 98% |  |  |  |  |
| O=C(CONC(=O)C(F)(F)F)N1CCC(c2nc(C3=NOC(c4c(F)cccc4F)C3)cs2)CC1 (stereo not drawn) [Compound 38] | 90% | 90% | 98% | 100* % | 99* % | 99* % |  |
| CC(=NOCC(=O)N1CCC(c2nc(C3=NOC(c4c(F)cccc4F)C3)cs2)CC1)C(F)(F)F (racemic) [Compound 4] | 100% | 99% | 100% |  |  |  |  |
| 1-[4-[4-[5-(2,6-difluorophenyl)-4,5-dihydro-3-isoxazolyl]-2-thiazolyl]-1-piperidinyl]-2-(4,5-dihydro-3,5-dimethyl-1H-pyrazol-1-yl]ethanone [Compound 40] | 100% | 98% | 100% |  |  |  |  |
| CC(CC(C)C)=NOCC(=O)N1CCC(c2nc(C3=NOC(c4c(F)cccc4F)C3)cs2)CC1 (racemic) [compound 25] |  |  |  | 100* % | 58* % | 93* % |  |
| CN1C(=O)c2ccccc2C12CC(c1csc(C3CCN(C(=O)CON=CC(F)(F)F)CC3)n1)=NO2 (stereo not drawn) [compound 47] | 100% | 99% | 100% |  |  |  |  |
| CC(C)=NOCC(=O)N1CCC(c2nc(C(=O)N(C)[C@H](C)c3ccccc3)cs2)CC1 [compound 15] |  |  |  | 39* % | 91* % | 99* % |  |
| CC(C)=NOCC(=O)N1CCC(c2nc(C3=NOC4(CCc5ccccc54)C3)cs2)CC1 (stereo not drawn) [compound 13] | 99% | 99% | 99% |  |  |  |  |
| CC1=NN(CC(=O)N2CCC(c3nc(C4=NOC(c5c(F)cccc5F)C4)cs3)CC2)C(C)(C)C1 (stereo not drawn) [compound 46] |  |  |  | 90* % | 81* % | 9* % |  |
| CN(CC(=O)N1CCC(c2nc(C3=NOC(c4c(F)cccc4F)C3)cs2)CC1)NC(=O)C(F)(F)F (stereo not drawn) [Compound 36, 2,2,2-trifluoroacetic acid 2-[2-[4-[5-(2,6-difluorophenyl)-4,5-dihydro-3-isoxazolyl]-2-thiazolyl-1-piperidinyl]-2-oxoethyl]-2-methylhydrazide] |  |  |  |  |  |  | Test B1 rating (disease control) ([1]; test suspension 200 ppm (**)): 100** %; Test B2 rating (disease control) ([2]; test suspension 200 ppm (**)): 93** %; Test A rating (disease control) ([3]; test suspension 200 ppm (**)): 60** % |
| CC1=NN(CC(=O)N2CCC(c3nc(C4=NOC(c5c(F)cccc5F)C4)cs3)CC2)C(C)C1 (stereo not drawn) [Compound 40, 1-[4-[4-[5-(2,6-difluorophenyl)-4,5-dihydro-3-isoxazolyl]-2-thiazolyl]-1-piperidinyl]-2-(4,5-dihydro-3,5-dimethyl-1H-pyrazol-1-yl]ethanone] |  |  |  | 100* % | 99* % | 97* % |  |
| CC(C)=NOCC(=O)N1CCC(c2nc(C3=NOC(c4ccccc4C)C3)cs2)CC1 (racemic) [compound 14] | 98% | 88% | 100% |  |  |  |  |
| C[C@H](c1ccccc1)N(C)C(=O)c1csc(C2CCN(C(=O)CON=CC(F)(F)F)CC2)n1 [Compound 31, N-methyl-N-[(1R)-1-phenylethyl]-2-[1-[2-[[(2,2,2-trifluoroethylidene)amino]oxy]acetyl]-4-piperidinyl]-4-thiazolecarboxamide] |  |  |  | 100* % | 99* % | 100* % |  |
| O=C(CON=CC(F)(F)F)N1CCC(c2nc(C3=NOC4(CCc5ccccc54)C3)cs2)CC1 (stereo not drawn) [compound 29] | 100% | 99% | 100% |  |  |  |  |
| CC(C)C=NOCC(=O)N1CCC(c2nc(C3=NOC(c4c(F)cccc4F)C3)cs2)CC1 (racemic) [compound 27] |  |  |  | 100* % | 99* % | 98* % |  |
| CC(=NOCC(=O)N1CCC(c2nc(C3=NOC(N4C(=O)c5ccccc5C4=O)C3)cs2)CC1)C(F)(F)F (stereo not drawn) [compound 44] | 100% | 99% | 100% |  |  |  |  |
| N#CC(C#N)=NOCC(=O)N1CCC(c2nc(C3=NOC(c4c(F)cccc4F)C3)cs2)CC1 (stereo not drawn) [compound 51] | 100% | 99% | 99% |  |  |  |  |
| O=C(CCNC(=O)C(F)(F)F)N1CCC(c2nc(C3=NOC(c4c(F)cccc4F)C3)cs2)CC1 (racemic) [compound 34] |  |  |  |  |  |  | Test B1 rating (disease control) ([1]; test suspension 200 ppm (**)): 97** %; Test B2 rating (disease control) ([2]; test suspension 200 ppm (**)): 40** %; Test A rating (disease control) ([3]; test suspension 200 ppm (**)): 33** % |
| CC(C)=NOCC(=O)N1CCC(c2nc(C3=NOC(c4ccccc4C#N)C3)cs2)CC1 (stereo not drawn) [compound 41] | 100% | 99% | 100% |  |  |  |  |
| CC(C)=NOCCC(=O)N1CCC(c2nc(C3=NOC(c4c(F)cccc4F)C3)cs2)CC1 (racemic) [compound 21] |  |  |  | 100* % | 98* % | 100* % |  |
